Source: a melting point compilation (Tetko et al.; mined from patent text by program, amines drawn as free bases though some values may be those of a salt)

SMILES | melting point [°C]
Cn1cncc1C(N)(c1ccc(Cl)cc1)c1ccc2c(c1)c(CCc1cccc(Cl)c1)cc(=O)n2C (stereo unspecified) | 165
COC(=O)c1ccc2oc(-c3ccccc3OCC(C)OC(=O)c3ccccc3)cc(=O)c2c1 (stereo unspecified) | 211 to 213
Cc1nc(C(C)C)nc(C)c1N1CCCn2c1nc1c(Cl)ccc(C(OC(F)F)C(F)(F)F)c12 (stereo unspecified) | 204 to 206
CC1=CC(OC(=O)c2ccc([N+](=O)[O-])cc2Cl)C(O)C(C)(C)CC1=O (stereo unspecified) | 108 to 110
CN(C)c1ccc2c(c1)CNC2=O | 122 to 124
Cc1sc2c(=O)[nH]cnc2c1Br | 320 to 322
O=C(Nc1cn2cc(Cl)ccc2n1)c1ccc(C2(C(=O)O)CCCCC2)cc1 | 288
O=C1CCC(N2Cc3c(OCc4cc5cc(N6CCCCC6)ccc5o4)cccc3C2=O)C(=O)N1 (stereo unspecified) | 242 to 244
O=C1Nc2cccnc2N(C(=O)NCCN2CCCCC2CN2CCCCCC2)c2ccccc21 (stereo unspecified) | 156 to 158
CCOC(=O)C1=NOC(c2ccccc2)(c2ccccc2)C1 | 78 to 81
CS(=O)(=O)c1ccc(-c2cnn(Cc3ccccc3)c(=O)c2-c2ccc(F)c(Cl)c2)cc1 | 134 to 136
COc1cccc(-c2cnn(-c3cccc(C(=O)O)c3)c2)c1 | 157 to 158
Cc1csc2ccc3[nH]c4c(c3c12)CN(CCCC(c1ccc(F)cc1)c1ccc(F)cc1)CC4 | 158
NS(=O)(=O)c1cccc(-c2ccco2)c1 | 197 to 198
O=c1cc(N2CCNCC2)oc2c1ccc1ccccc12 | 208 to 209
COC(CC[C@](C)(O)[C@@H](/C=C\C=C\c1ccccc1)Sc1ccccc1)OC (racemic) | 59.5 to 61
O=c1c2cnc(-c3ccccc3)nc2sn1Cc1ccccn1 | 154 to 156
COc1cccc(CN2CC(=O)Nc3ncc(-c4ccc(O)cc4)nc32)c1 | 282 to 283
COC(=O)c1c(Br)ccc2[nH]ncc12 | 164 to 165
Cc1ccc(C(=O)c2cccc(C(=O)O)c2)c(O)c1 | 198 to 215
CCCc1nn(C)c2c(=O)n(CCCOc3ccc(OC(C)(C)C(=O)O)cc3)c(CC)nc12 | 124 to 126
NS(=O)(=O)c1cccc(-c2cccc(-c3nc(-c4ccc(Cl)s4)cc(C(F)(F)F)n3)c2)c1 | 226
CC(=O)OC1OC(CF)C(OC(C)=O)C1OC(C)=O (stereo unspecified) | 98 to 101
CN1C(=O)C(c2cccc(OCC3CC3)c2)(c2cnn(CC(F)(F)F)c2)N=C1N (stereo unspecified) | 78 to 80

SMILES | melting point [°C]
COc1ccc2nc(COc3ccc(CC(S)C(N)=O)cc3)n(C)c2c1 (stereo unspecified) | 204 to 208
CS(=O)(=O)Nc1cccc(Nc2nc(NC3CCC3)c3nc[nH]c3n2)c1 | 142 to 146
CC1=C(C(=O)OCCC#N)C(c2cccc([N+](=O)[O-])c2)C(C(=O)OCCCN2CCC(c3ccccc3)(c3ccccc3)CC2)=C(C)N1 (stereo unspecified) | 158 to 160
CCCCCCCCCCCC(=O)NC(CCC(=O)O)C(=O)O (racemic) | 101 to 104
CCN(CC)CCC(=O)Nc1ccc(NC(=O)Nc2ccc(N(CCCl)CCCl)cc2)cc1 | 178 to 179
C=CCc1cc2c(cc1O)C(C)(C)C(CCO)O2 (stereo unspecified) | 55 to 58
CN(C)CCN1C(=O)C(N)C(=O)N(CC2CCCCC2)c2ccccc21 (stereo unspecified) | 94 to 95
NC1CCN(c2c(F)cc3c(=O)c(C(=O)O)cn(C4CC4)c3c2F)C1 (stereo unspecified) | 290 to 292
CC(=O)OC1CSC(Oc2cncc(-c3cc4ccccc4o3)c2)C(OC(C)=O)C1OC(C)=O (stereo unspecified) | 125
O=C(O)C(=O)c1ccc(OCCOc2ccc(C(F)(F)F)cc2)cc1 | 121 to 123
CCCc1nc2c(N)nc3cc(CCc4cccnc4)ccc3c2n1NC(C)C | 100 to 103
CN(CCc1ccccc1)c1nc(=O)c2cccnc2s1 | 115 to 116
CCN(CC)CCOc1cc(C(=O)NC(=N)N)c(C)c2ccc(OC)cc12 | 135
CCOC(=O)C1=C(C)N=C(SCc2ccc(OC)cc2)N(C(=O)OCC)C1c1cccc(Cl)c1Cl (stereo unspecified) | 124 to 126
CO[C@]1(c2cc(F)cc(Sc3ccc(/C(C)=N/O)cc3)c2)CCO[C@@H](C)C1 | 105
Cc1oc(-c2ccco2)nc1COc1ccc(COc2ncccc2C#N)cc1 | 135 to 136
Clc1c2ccccc2nc2c1c(CBr)nn2-c1ccccn1 | 203 to 205
CC(C)C[C@H](NC(=O)[C@H](Cc1c[nH]cn1)NC(=O)[C@H](Cc1cccc2ccccc12)NC(=O)OCc1ccccc1)[C@@H](O)CC(N)=O | 158 to 161
CC(C)Oc1cc(NC(=O)C2CCCCN2)c(F)cc1Cl (stereo unspecified) | 96 to 98
CC1(C)CC(NC(=O)ON(Cc2ccccc2)Cc2ccccc2)CC(C)(CNC(=O)ON(Cc2ccccc2)Cc2ccccc2)C1 (stereo unspecified) | 139 to 146
N#Cc1cnc2sc(C#Cc3ccccn3)cc2c1Nc1ccc2[nH]ccc2c1 | > 260
CCCCCCC1=NOC(=O)/C1=C\Nc1ccc(CCCCCC)cc1 | 88 to 90
COc1cccc(CCN2C(=O)c3ccccc3C2(O)c2ccc(C(F)(F)F)cc2)c1 (stereo unspecified) | 167
O=C(NC(c1ccc([N+](=O)[O-])cc1)P(=O)(Oc1ccccc1)Oc1ccccc1)N(c1ccccc1)c1ccccc1 (stereo unspecified) | 157 to 162

SMILES | melting point [°C]
CCCCNc1c2c(nc3c1cnn3CC)CCc1ccccc1C2=O | 91 to 93
O=Cc1c(O)cccc1[N+](=O)[O-] | 52 to 53
O=C(c1ccc(Cl)cc1)N1CCc2cc(S(=O)(=O)N3CC(c4ccccc4)NC3=O)ccc21 (stereo unspecified) | 235
Cc1ccc(S(=O)(=O)NCCCCOc2ccc(-c3nnn[nH]3)cc2)cc1 | 180 to 182
CN1CCN(c2cccc3c2C=C(C#N)CC3)CC1 | 104 to 105
C1=C(CCC2CCCO2)CCN(Cc2c[nH]c3ncccc23)C1 (stereo unspecified) | 70 to 72
COc1ccc(C(O)C=Cc2ccc(N(C)C)cc2)cc1 (stereo unspecified) | 137 to 148
O=C(O)c1ccc2c(=O)n(CCCCN3CC=C(c4ccccc4)CC3)c(=O)[nH]c2c1 | 296 to 305
CCOC(=O)c1cc(=O)cc(-c2ccc(OC)cc2)o1 | 131 to 133
FC(F)(F)c1cccc2snnc12 | 41 to 44
COC(=O)C=Cc1ccc(NC(C)=O)c(OC)c1 | 137
COC(=O)c1ccc(NC(=O)c2cc(C(C)C)c(C(C)C)o2)cc1O | 156 to 157
O=C(C=C(O)c1ccccc1O)c1cn(S(=O)(=O)c2ccccc2)c2ccc(Cl)cc12 | 241 to 244
COC(=O)CP(=O)(O)C(CCc1ccccc1)NC(=O)OCc1ccccc1 (stereo unspecified) | 143 to 147
O=C(CCCl)c1ccc2c3c1CCCC3C(=O)N2 (stereo unspecified) | 175 to 178
CC1=C(C)C(=O)C(CCCCC#CCCCC#CC(=O)O)=C(C)C1=O | 49 to 51
O=C(CNC(=O)[C@@H]1CCCN1)Nc1ccc([N+](=O)[O-])cc1C(=O)c1ccccc1 | 165 to 167
CCCc1nc2c(N)nc3cc(OCc4ccc(OC)cc4)ccc3c2n1CC(C)C | 186 to 188
CC(=O)OCC1OC(n2cc(C(Br)=CI)c(=O)[nH]c2=O)C(OC(C)=O)C1OC(C)=O (stereo unspecified) | 86 to 88
Cc1cc(NC(=O)OC(C)(C)C)c(N)cc1-c1ccccc1 | 122
CC(Cc1c[nH]c2ccccc12)NC(=O)C=C1CCC(c2cccc(F)c2)(N(C)C)CC1 (stereo unspecified) | 163 to 166
CC(C)N[C@H](C(=O)O)C(C)C | > 300
CC(C)(C)NS(=O)(=O)c1ccc(-c2cn(-c3cc(-c4ccc(C(F)(F)F)cc4)cc(C(F)(F)F)n3)cn2)s1 | > 250
O=C(NCc1ccn(C2=CC3=C(CC2)CCc2[nH]c(=O)c(=O)[nH]c23)c1)Nc1ccccc1 | > 240

SMILES | melting point [°C]
CCC(CO)(CO)CBr | 78 to 80
CCC(O)(c1ccc(OCc2cccc(C)n2)cc1)c1cc(C)ccc1C (stereo unspecified) | 107 to 108
CN1CCC2(CC1)SC(c1ccc(Cl)cc1)c1ccccc12 (stereo unspecified) | 121 to 123
C=CCN1CCN(C2N=C(N)OC2C)CC1 (stereo unspecified) | 99
CCOC(=O)CNc1cc(Cl)nc(Cl)n1 | 89 to 91
CC(NC(=O)C(NC(=O)OCc1ccccc1)C(C)C)C(=O)NC(CC(=O)OC(C)(C)C)C(O)c1nc2ccccc2o1 (mixture of isomers) | 81 to 83
COC(=O)c1ccccc1NC(=O)CNc1ccccc1 | 140 to 142
CCCC(=O)NC[C@@H]1C[C@H]1c1cc(OC)c(Br)cc1Br (relative stereo) | 114 to 115
COc1cnn(C)c(=O)c1Cl | 189 to 191
CCC(C(=O)C(=O)O)c1ccccc1 (stereo unspecified) | 62 to 68
CN1CC(CN=[N+]=[N-])CC2c3cccc4c3c(cn4C)CC21 (stereo unspecified) | 168 to 169
COC(=O)C1CCC2C3CCC4CC5OC5CC4(C)C3C(NC(=O)OCC(Cl)(Cl)Cl)CC12C (stereo unspecified) | 153 to 155
CSc1nc(O)c(C(N)=O)c(O)n1 | > 360
CON=C(Cl)c1ccccc1S(=O)(=O)NC(=O)Nc1nc(C)nc(OC)n1 | 182 to 184
Cc1nc(CS(C)=O)nc(OC(=O)N(C)C)c1C(C)C (stereo unspecified) | 80
COc1ccc(C(=O)C(CCC(=O)c2ccc(F)cc2)c2ccc(OC)cc2)cc1 (stereo unspecified) | 71 to 74
COc1cc(F)ccc1-c1ccc(S(=O)(=O)N2c3ccccc3CC2C(=O)NCc2ccccc2N)cc1 (stereo unspecified) | 92 to 97
CN1C(=O)C(C)(C)C(=O)Nc2cc(C=O)ccc21 | 208 to 210
CCCCC[C@H]1CC[C@H](CC(=O)c2ccc(-c3ccc(CC)cc3F)cc2)CC1 | 72 to 73
CCCNC(=O)c1nc(CCl)n(-c2ccc(Cl)cc2C(=O)c2ccccc2Cl)n1 | 110 to 113
COc1ccccc1-n1c(=O)[nH]c2c(C(N)=O)nc(NCCO)nc21 | 157 to 160
CCCCCCCCCCCCCCCCC(O)CN (stereo unspecified) | 75.2 to 76.5
CC(C)Oc1ccc([N+](=O)[O-])cc1NC(=O)Nc1cccnc1 | 231 to 232
CC(C(=O)Nc1ccc(C(=O)O)cc1)c1ccc2c(c1)C(C)(C)CCC2(C)C (stereo unspecified) | 195 to 196
